Test [1] has as its target T1, human Cot catalytic domain (30-397 amino acids) (Homo sapiens, UniProt P41279).
T1 construct: Purified recombinant human Cot catalytic domain (30-397 amino acids) was purchased from Cama Biosciences; purchased Cama Biosciences (so in the source)
Nature of the test: High Throughput Cot Biochemical Assay (KinEASE TR-FRET). Particulars: read-out: IC50 HTRF. The gist of the method:
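Phosphorylation of 1 μM XL665-STK3 peptide by 5 nM Cot catalytic domain was measured by time-resolved FRET using a europium […] antibody. ATP was 400 μM; buffer was 10 mM MOPS pH 7.0 with Mg2+ and DTT.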
(TR-FRET usually uses a lanthanide donor and a delayed reading to cut background.)

For test [2], the system named is TNFα production in LPS-stimulated human monocytes. Kind of test: Cot Monocyte TNFα Cell Based Assay. Particulars: Homo sapiens, Monocyte, read-out: EC50 TNF. The gist of the method:
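Percent-of-control values derive from TR-FRET ratios of TNFα in spun-down media, referenced to unstimulated and LPS-stimulated wells. Exposure: 1 h compound preincubation, then 50 pg/ml LPS for 4 h, both at 37 °C, with 0.5% final DMSO.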

Where [3] appears, read: Cot biochemical HTRF (KinEASE TR-FRET) assay.
The mark [4] stands for this setting: TNFα in LPS-stimulated human monocytes.
Where [5] appears, read: Cot KinEASE TR-FRET, 400 μM ATP.
Setting [6] is: LPS-stimulated human monocytes, TNFα TR-FRET.

Read-outs that look alike come from different tables or passages of the source.

The record followed here is US10316017B2, “COT modulators and methods of use thereof” (Gilead Sciences, Inc., priority 2015, dated 2019).

T1 sequence (P41279 30-397): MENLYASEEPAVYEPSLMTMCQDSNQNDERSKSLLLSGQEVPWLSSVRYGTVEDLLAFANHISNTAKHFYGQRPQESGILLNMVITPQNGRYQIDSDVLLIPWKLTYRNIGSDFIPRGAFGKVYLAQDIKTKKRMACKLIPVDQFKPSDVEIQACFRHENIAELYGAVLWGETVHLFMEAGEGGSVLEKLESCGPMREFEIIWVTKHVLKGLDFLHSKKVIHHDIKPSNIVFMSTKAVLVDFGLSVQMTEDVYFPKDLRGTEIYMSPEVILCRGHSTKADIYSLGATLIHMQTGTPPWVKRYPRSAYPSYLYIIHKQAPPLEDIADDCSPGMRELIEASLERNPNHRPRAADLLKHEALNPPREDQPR

As for `CCN1CCC(n2cc(C(Nc3cc(Cl)c4ncc(C#N)c(Nc5ccc(F)c(Cl)c5)c4c3)c3ccc(F)cc3C)nn2)CC1` (stereo not shown) [Example 885, 8-chloro-4-((3-chloro-4-fluorophenyl)amino)-6-(((1-(1-ethylpiperidin-4-yl)-1H-1,2,3-triazol-4-yl)(4-fluoro-2-methylphenyl)methyl)amino) quinoline-3-carbonitrile], the concentration for half-maximal inhibition (IC50) in test [1] (setting [3]) stood at 9 nM. Besides, in test [2] (setting [4]), the EC50 is 287 nM.

For the compound `Cn1cnc(C(Nc2cc(Cl)c3ncc(C#N)c(Nc4ccc(F)c(Cl)c4)c3c2)c2ccc(F)cc2)c1` (stereo not shown) [Example 887, 8-chloro-4-((3-chloro-4-fluorophenyl)amino)-6-(((4-fluorophenyl)(1-methyl-1H-imidazol-4-yl)methyl)amino)quinoline-3-carbonitrile], the IC50 in test [1] (setting [3]) was found to be 70 nM. Also, the concentration for a half-maximal effect (EC50) in test [2] (setting [4]) stood at 1890 nM.

In the case of `CCN1CCC(n2cc(C(Nc3cc(Cl)c4ncc(C#N)c(Nc5ccc(F)c(Cl)c5)c4c3)c3cc(F)c(F)c(F)c3)nn2)CC1` (stereo not shown) [Example 889, 8-chloro-4-((3-chloro-4-fluorophenyl)amino)-6-(((1-(1-ethylpiperidin-4-yl)-1H-1,2,3-triazol-4-yl)(3,4,5-trifluorophenyl)methyl)amino) quinoline-3-carbonitrile], the 50% inhibitory concentration (IC50) in test [1] (setting [3]) turned out to be 32 nM. Also, in test [2] (setting [4]), the concentration for a half-maximal effect (EC50) came to 362 nM.

As to `Cn1cnc(C(Nc2cc(Cl)c3ncc(C#N)c(Nc4ccc(F)c(Cl)c4)c3c2)c2ccc(Cl)cc2)c1` (stereo not shown) [Example 894, 8-chloro-4-((3-chloro-4-fluorophenyl)amino)-6-(((4-chlorophenyl)(1-methyl-1H-imidazol-4-yl)methyl)amino)quinoline-3-carbonitrile], the IC50 in test [1] (setting [3]) turned out to be 168 nM. In addition, in test [2] (setting [4]), the EC50 is 1750 nM.

With `Cn1cnc(C(Nc2cc(Cl)c3ncc(C#N)c(Nc4ccc(F)c(Cl)c4)c3c2)c2ccccc2)c1` (stereo not shown) [Example 895, 8-chloro-4-((3-chloro-4-fluorophenyl)amino)-6-(((1-methyl-1H-imidazol-4-yl)(phenyl)methyl)amino) quinoline-3-carbonitrile], the IC50 in test [1] (setting [3]) came out at 56 nM. Also, the EC50 in test [2] (setting [4]) amounted to 1000 nM.

Regarding `CCN1CCC(n2cc(C(Nc3cc(Cl)c4ncc(C#N)c(Nc5ccc(F)c(Cl)c5)c4c3)c3cccc(F)c3)nn2)CC1` (stereo not shown) [Example 907, 8-chloro-4-((3-chloro-4-fluorophenyl)amino)-6-(((1-(1-ethylpiperidin-4-yl)-1H-1,2,3-triazol-4-yl)(3-fluorophenyl)methyl)amino) quinoline-3-carbonitrile], the concentration for half-maximal inhibition (IC50) in test [1] (setting [3]) amounted to 5 nM. For the same compound, the concentration giving a half-maximal response (EC50) in test [2] (setting [4]) came out at 128 nM.

On to `CCN1CCC(n2cc([C@H](Nc3cc(Cl)c4ncc(C#N)c(Nc5ccc(F)c(Cl)c5)c4c3)c3ccccc3)nn2)CC1` [Example 918, (R)-8-chloro-4-((3-chloro-4-fluorophenyl)amino)-6-(((1-(1-ethylpiperidin-4-yl)-1H-1,2,3-yl)(phenyl)methyl)amino) quinoline-3-carbonitrile], for which the IC50 in test [1] (setting [5]) amounted to 194 nM. The 50% effective concentration (EC50) in test [2] (setting [6]) was determined as 8580 nM.

Consider `[2H][C@](Nc1cc(Cl)c2ncc(C#N)c(N[C@H](CCOC)c3ccccc3)c2c1)(c1ccc(F)cc1)c1cn(C2CC2)nn1` [Example 925, 8-chloro-6-(((1-cyclopropyl-1H-1,2,3-triazol-4-yl)(4-fluorophenyl)methyl-d)amino)-4-(((R)-3-methoxy-1-phenylpropyl)amino)quinoline-3-carbonitrile], for which the IC50 in test [1] (setting [5]) turned out to be 10 nM. Besides, the 50% effective concentration (EC50) in test [2] (setting [6]) was found to be 187 nM.

As to `N#Cc1cnc2c(Cl)cc(N[C@@H](c3ccc(F)cc3)c3cn(C4CC4)nn3)cc2c1NCC12CC(C1)C2` [Example 927, (S)-4-((bicyclo[1.1.1]pentan-1-ylmethyl)amino)-8-chloro-6-(((1-cyclopropyl-1H-1,2,3-triazol-4-fluorophenyl)methyl)amino) quinoline-3-carbonitrile], the IC50 in test [1] (setting [5]) is 34 nM. The half-maximal effective concentration (EC50) in test [2] (setting [6]) amounted to 576 nM.

Regarding `N#Cc1cnc2c(Cl)cc(N[C@H](c3cn(C4CC4)nn3)c3ccccc3Cl)cc2c1NCC12CC(C1)C2` [Example 928, (S)-4-((bicyclo[1.1.1]pentan-1-ylmethyl)amino)-8-chloro-6-(((2-chlorophenyl)(1-cyclopropyl-1H-1,2,3-triazol-4-yl)methyl)amino)quinoline-3-carbonitrile], the IC50 in test [1] (setting [5]) came to 68 nM. Also, the EC50 in test [2] (setting [6]) worked out at 443 nM.

As for `[2H][C@](Nc1cc(Cl)c2ncc(C#N)c(NCC(C)(C)C)c2c1)(c1ccc(Cl)cc1)c1cn(C2CCN(C(C)(C)C)CC2)nn1` [Example 929, (S)-6-(((1-(1-(tert-butyl)piperidin-4-yl)-1H-1,2,3-triazol-4-yl)(4-chlorophenyl)methyl-d)amino)-8-chloro-4-(neopentylamino)quinoline-3-carbonitrile], the half-maximal inhibitory concentration (IC50) in test [1] (setting [5]) was determined as 7 nM. Further, in test [2] (setting [6]), the concentration for a half-maximal effect (EC50) came out at 98 nM.

On to `[2H][C@@](Nc1cc(Br)c2ncc(C#N)c(N[C@H](CCC#N)c3ccccc3)c2c1)(c1cn(C2CC2)nn1)c1ccccc1Cl` [Example 930, 8-bromo-6-(((S)-(2-chlorophenyl)(1-cyclopropyl-1H-1,2,3-triazol-4-yl)methyl-d)amino)-4-(((R)-3-cyano-1-phenylpropyl)amino) quinoline-3-carbonitrile], for which, in test [1] (setting [5]), the IC50 was found to be 5 nM. Besides, in test [2] (setting [6]), the 50% effective concentration (EC50) was found to be 66 nM.

For `[2H][C@](Nc1cc(S(C)(=O)=O)c2ncc(C#N)c(NCC(C)(C)C)c2c1)(c1ccc(F)cc1)c1cn(C2CC2)nn1` [Example 931, (S)-6-(((1-cyclopropyl-1H-1,2,3-triazol-4-yl)(4-fluorophenyl)methyl-d)amino)-8-(methylsulfonyl)-4-(neopentylamino)quinoline-3-carbonitrile], in test [1] (setting [5]), the IC50 worked out at 27 nM. The concentration giving a half-maximal response (EC50) in test [2] (setting [6]) was found to be 447 nM.

Regarding `[2H][C@](Nc1cc(Cl)c2ncc(C#N)c(Nc3cccc4ccccc34)c2c1)(c1ccc(F)cc1)c1cn(C2CC2)nn1` [Example 933, (S)-8-chloro-6-(((1-cyclopropyl-1H-1,2,3-triazol-4-yl)(4-fluorophenyl)methyl-d)amino)-4-(naphthalen-1-ylamino) quinoline-3-carbonitrile], the concentration for half-maximal inhibition (IC50) in test [1] (setting [5]) came to 314 nM. Moreover, the EC50 in test [2] (setting [6]) was not below 1000 nM.

For `[2H][C@](Nc1cc(Cl)c2ncc(C#N)c(Nc3cccc(Cl)c3C#N)c2c1)(c1ccc(F)cc1)c1cn(C2CC2)nn1` [Example 934, (S)-8-chloro-4-((3-chloro-2-cyanophenyl)amino)-6-(((1-cyclopropyl-1H-1,2,3-triazol-4-yl)(4-fluorophenyl)methyl-d)amino)quinoline-3-carbonitrile], in test [1] (setting [5]), the IC50 was found to be 371 nM. The EC50 in test [2] (setting [6]) was not below 1000 nM.

As to `[2H][C@](Nc1cc(Cl)c2ncc(C#N)c(Nc3cccc(Cl)c3S(C)(=O)=O)c2c1)(c1ccc(F)cc1)c1cn(C2CC2)nn1` [Example 935, (S)-8-chloro-4-((3-chloro-2-(methylsulfonyl)phenyl)amino)-6-(((1-cyclopropyl-1H-1,2,3-triazol-4-yl)(4-fluorophenyl)methyl-d)amino)quinoline-3-carbonitrile], the IC50 in test [1] (setting [5]) is not below 10000 nM. For the same compound, in test [2] (setting [6]), the 50% effective concentration (EC50) is not below 1000 nM.

As to `[2H][C@](Nc1cc(Cl)c2ncc(C#N)c(NCC(C)(C)C)c2c1)(c1ccc(Cl)cc1)c1cn(C2CC2)nn1` [Example 936, (S)-8-chloro-6-(((4-chlorophenyl)(1-cyclopropyl-1H-1,2,3-triazol-4-yl)methyl-d)amino)-4-(neopentylamino) quinoline-3-carbonitrile], in test [1] (setting [5]), the IC50 was 12 nM. Besides, the EC50 in test [2] (setting [6]) turned out to be 222 nM.

The IC50 is the midpoint of a concentration-inhibition curve. As a reminder, the EC50 is the concentration that produces a half-maximal response.
